This passage reports IC50 results from patent US11203591B2, “Substituted 6-azabenzimidazole compounds” (Gilead Sciences, Inc., priority 2018, dated 2021).

Chain of human HPK1 (MAP4K1) (Q92918 17-274): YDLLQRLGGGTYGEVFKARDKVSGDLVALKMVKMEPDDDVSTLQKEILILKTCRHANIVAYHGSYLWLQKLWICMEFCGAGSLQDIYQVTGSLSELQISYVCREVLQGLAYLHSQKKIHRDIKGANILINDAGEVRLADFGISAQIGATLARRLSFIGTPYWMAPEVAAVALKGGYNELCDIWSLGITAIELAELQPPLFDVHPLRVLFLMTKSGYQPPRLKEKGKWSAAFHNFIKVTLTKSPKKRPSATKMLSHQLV

The first assay deals with human HPK1 (MAP4K1) (Homo sapiens (Human), UniProt Q92918). The experiment in a line: HPK1 IC50 Assay (TR-FRET peptide phosphorylation). The conditions noted are these: 0.15 nM HPK1, 10 μM ATP, 1 μM STK S1 peptide substrate; geometric mean. The assay is classed as biochemical. The method, boiled down:
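Pre-activated, dually phosphorylated baculovirus-expressed HPK1 kinase domain (0.15 nM) preincubated 15 min with compound, then reacted 3 h at 25° C with 10 μM ATP and 1 μM STK S1 peptide in BES pH 7.0 buffer. Phosphopeptide read by TR-FRET (665/620 nm); four-parameter fit, geometric-mean IC50.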
Take `CC(C)n1cnc2cc(-c3ccc4c(c3)N([C@H]3C[C@@](C)(N5CCCCC5)C3)C(=O)C4(C)C)nc(Nc3cc(C(=O)NC4(CF)CC4)c(Cl)c(F)c3F)c21` [Example 292, 2-chloro-5-((6-(3,3-dimethyl-1-((1s,3s)-3-methyl-3-(piperidin-1-yl)cyclobutyl)-2-oxoindolin-6-yl)-3-isopropyl-3H-imidazo[4,5-c]pyridin-4-yl)amino)-3,4-difluoro-N-(1-(fluoromethyl)cyclopropyl)benzamide]: the IC50 (usually the concentration that inhibits the measured activity by half) came out at 0.07 nM.
As for `Cc1c(C(=O)NCC(F)F)cc(Nc2nc(-c3cc4c(nc3F)C(C)(C)C(=O)N4[C@H]3C[C@@](C)(N4CCCC5(CC5)C4)C3)cc3ncn(C(C)C)c23)c(F)c1F` [Example 277, N-(2,2-difluoroethyl)-3,4-difluoro-5-((6-(5-fluoro-3,3-dimethyl-1-((1s,3s)-3-methyl-3-(5-azaspiro[2.5]octan-5-yl)cyclobutyl)-2-oxo-2,3-dihydro-1H-pyrrolo[3,2-b]pyridin-6-yl)-3-isopropyl-3H-imidazo[4,5-c]pyridin-4-yl)amino)-2-methylbenzamide], the IC50 was 0.07 nM.
The same measure, in the same setting: as for `CC(C)n1cnc2cc(-c3cnc4c(c3)N([C@]3(C)C[C@H](N5CCCCC5)C3)C(=O)C4(C)C)nc(Nc3cc(C(=O)NC4(C(F)F)CC4)c(Cl)c(F)c3F)c21` [Example 297, 2-Chloro-N-(1-(difluoromethyl)cyclopropyl)-5-((6-(3,3-dimethyl-1-((1s,3s)-1-methyl-3-(piperidin-1-yl)cyclobutyl)-2-oxo-2,3-dihydro-1H-pyrrol[3,2-b]pyridin-6-yl)-3-isopropyl-3H-imidazo[4,5-c]pyridin-4-yl)amino)-3,4-difluorobenzamide], the figure is 0.2 nM.

Staying with this assay, now noted: recombinant HPK1 kinase domain 0.15 nM, 10 μM ATP, 1 μM STK S1 peptide; geometric mean of multiple experiments.
As for `CC(C)n1cnc2cc(-c3cnc4c(c3)N([C@H]3C[C@@](C)(N5C[C@H]6CC[C@@H]5C6)C3)C(=O)C4(C)C)nc(Nc3cc(C(=O)NC4(C(F)F)CC4)c(Cl)c(F)c3F)c21` [Example 263, 5-((6-(1-((1S,3s)-3-((1R,4S)-2-azabicyclo[2.2.1]heptan-2-yl)-3-methylcyclobutyl)-3,3-dimethyl-2-oxo-2,3-dihydro-1H-pyrrolo[3,2-b]pyridin-6-yl)-3-isopropyl-3H-imidazo[4,5-c]pyridin-4-yl)amino)-2-chloro-N-(1-(difluoromethyl)cyclopropyl)-3,4-difluorobenzamide], the IC50 was 0.05 nM.
On the same count and under the same terms, as for `CNC(=O)c1cc(Nc2nc(-c3ccc4c(c3)N([C@H]3C[C@@H](N5CCCCC5)C3)C(=O)C43CCN(C(C)=O)CC3)cc3ncn(C4CC4)c23)ccc1C` [Example 58a], the figure is 0.1 nM; as for `Cc1cc(F)c(Nc2nc(-c3cnc4c(c3)N([C@H]3C[C@@](C)(N5CCCCC5)C3)C(=O)C43CCOCC3)cc3ncn(C(C)C)c23)cc1C(=O)NC1(C(F)F)CC1` [Example 206, N-(1-(Difluoromethyl)cyclopropyl)-4-fluoro-5-((3-isopropyl-6-(1′-((1s,3s)-3-methyl-3-(piperidin-1-yl)cyclobutyl)-2′-oxo-1′,2,2′,3,5,6-hexahydrospiro[pyran-4,3′-pyrrolo[3,2-b]pyridin]-6′-yl)-3H-imidazo[4,5-c]pyridin-4-yl)amino)-2-methylbenzamide], 0.07 nM; as for `Cc1c(C(=O)NC2(C(F)F)CC2)cc(Nc2nc(-c3ccc4c(c3)N([C@H]3C[C@@H](N5CCCCC5)C3)C(=O)C4(C)C)cc3ncn(C(C)C)c23)c(F)c1F` [Example 144], 0.07 nM.
Still for that read-out and setting: as for `CC(=O)N1CC2(C1)C(=O)N([C@H]1C[C@@H](N3CCCCC3)C1)c1cc(-c3cc4ncn(C(C)C)c4c(Nc4cc(C(=O)NC(C)C)c(C)cc4F)n3)ccc12` [Example 179], the figure is 1.1 nM; as for `CC(C)n1cnc2cc(-c3cnc4c(c3)N(C3CC(C)(N5CCC6C[C@@H]6C5)C3)C(=O)C4(C)C)nc(Nc3cc(C(=O)NC4(CF)CC4)c(Cl)c(F)c3F)c21` (some centres unmarked) [Example 258, 5-((6-(1-((1s,3s)-3-(3-azabicyclo[4.1.0]heptan-3-yl)-3-methylcyclobutyl)-3,3-dimethyl-2-oxo-2,3-dihydro-1H-pyrrolo[3,2-b]pyridin-6-yl)-3-isopropyl-3H-imidazo[4,5-c]pyridin-4-yl)amino)-2-chloro-3,4-difluoro-N-(1-(fluoromethyl)cyclopropyl)benzamide], 0.09 nM; as for `CC(C)n1cnc2cc(-c3cnc4c(c3)N([C@H]3C[C@@H](N5CCCCC5)C3)C(=O)C4(C)C)nc(Nc3cc(C(=O)NC4(C(F)F)CC4)c(Cl)c(F)c3F)c21` [Example 245, 2-chloro-N-(1-(difluoromethyl)cyclopropyl)-5-((6-(3,3-dimethyl-2-oxo-1-((1s,3s)-3-(piperidin-1-yl)cyclobutyl)-2,3-dihydro-1H-pyrrolo[3,2-b]pyridin-6-yl)-3-isopropyl-3H-imidazo[4,5-c]pyridin-4-yl)amino)-3,4-difluorobenzamide], 0.1 nM.
Still for that read-out and setting: as for `CNC(=O)c1cc(Nc2nc(-c3ccc4c(c3)N([C@H]3C[C@@H](N5CCCCC5)C3)C(=O)C4(C)C)cc3ncn(C(C)C)c23)ccc1C` [Example 1, 5-((6-(3,3-dimethyl-2-oxo-1-((1s,3s)-3-(piperidin-1-yl)cyclobutyl)indolin-6-yl)-3-isopropyl-3H-imidazo[4,5-c]pyridin-4-yl)amino)-N,2-dimethylbenzamide], the figure is 0.08 nM; as for `CC(C)n1cnc2cc(-c3cnc4c(c3)N([C@H]3C[C@@](C)(N5CCCCC5)C3)C(=O)C4(C)C)nc(Nc3cc(C(=O)NC4(C(F)F)CC4)ccc3F)c21` [Example 218, N-(1-(difluoromethyl)cyclopropyl)-3-((6-(3,3-dimethyl-1-((1s,3s)-3-methyl-3-(piperidin-1-yl)cyclobutyl)-2-oxo-2,3-dihydro-1H-pyrrolo[3,2-b]pyridin-6-yl)-3-isopropyl-3H-imidazo[4,5-c]pyridin-4-yl)amino)-4-fluorobenzamide], 0.06 nM; as for `CC[C@H](C)n1cnc2cc(-c3ccc4c(c3)N([C@H]3C[C@@H](N5CCCCC5)C3)C(=O)C4(C)C)nc(Nc3ccc(Cl)c(C(=O)NC)c3)c21` [Example 114], 0.05 nM.
On to `CNC(=O)c1cc(Nc2nc(-c3ccc4c(c3)N([C@H]3C[C@@H](N5CCCCC5)C3)C(=O)C43CCN(C(=O)C4CC4)CC3)cc3ncn(C4CC4)c23)ccc1C` [Example 51], for which the IC50 is 0.1 nM.
Turning to `CNC(=O)c1cc(Nc2nc(-c3ccc4c(c3)N([C@H]3C[C@@H](N5CCCCC5)C3)C(=O)C4(C)C)cc3ncn(C4CC4)c23)ccc1C` [Example 79], the IC50 came to 0.2 nM.
As to `Cc1c(C(=O)NC2(C(F)F)CC2)cc(Nc2nc(-c3cnc4c(c3)N([C@H]3C[C@@](C)(N5CCCCC5)C3)CC4(C)C)cc3ncn(C(C)C)c23)c(F)c1F` [Example 214, N-(1-(Difluoromethyl)cyclopropyl)-5-((6-(3,3-dimethyl-1-((1s,3s)-3-methyl-3-(piperidin-1-yl)cyclobutyl)-2,3-dihydro-1H-pyrrolo[3,2-b]pyridin-6-yl)-3-isopropyl-3H-imidazo[4,5-c]pyridin-4-yl)amino)-3,4-difluoro-2-methylbenzamide], the half-maximal inhibitory concentration (IC50) came to 0.1 nM.
On the same count and under the same terms, next, `CNC(=O)c1cc(Nc2nc(-c3ccc4c(c3)N([C@H]3C[C@@H](N5CC[C@@H](F)C5)C3)C(=O)C43CCN(C4COC4)CC3)cc3ncn(C(C)C)c23)c(F)cc1C` [Example 71]: 0.1 nM.
On to `Cc1c(C(=O)NC2(C(F)F)CC2)cc(Nc2nc(-c3ccc4c(c3)N([C@H]3C[C@@](C)(N5CCCCC5)C3)C(=O)C4(C)C)cc3ncn(C(C)C)c23)c(F)c1F` [Example 236, N-(1-(Difluoromethyl)cyclopropyl)-5-((6-(3,3-dimethyl-1-((1s,3s)-3-methyl-3-(piperidin-1-yl)cyclobutyl)-2-oxoindolin-6-yl)-3-isopropyl-3H-imidazo[4,5-c]pyridin-4-yl)amino)-3,4-difluoro-2-methylbenzamide], for which the IC50 was found to be 0.07 nM.
On the same count and under the same terms, next, `Cc1ccc(Nc2nc(-c3ccc4c(c3)N([C@H]3C[C@@](C)(N5CCCCC5)C3)C(=O)C4(C)C)cc3ncn(C4CC4)c23)cc1C(N)=O` [Example 183, 5-((3-cyclopropyl-6-(3,3-dimethyl-1-((1s,3s)-3-methyl-3-(piperidin-1-yl)cyclobutyl)-2-oxoindolin-6-yl)-3H-imidazo[4,5-c]pyridin-4-yl)amino)-2-methylbenzamide]: 0.05 nM; `CNC(=O)c1cc(Nc2nc(-c3ccc4c(c3)N([C@H]3C[C@@H](N5CC6C(C5)C6(F)F)C3)C(=O)C4(C)C)cc3ncn(C(C)C)c23)ccc1C` (some centres unmarked) [Example 7]: 0.4 nM.
On the same count and under the same terms, next, `CNC(=O)c1cc(Nc2nc(-c3ccc4c(c3)N([C@H]3C[C@@H](N5CCCCC5)C3)C(=O)C43CCN(C(=O)C(C)C)CC3)cc3ncn(C4CC4)c23)ccc1C` [Example 52]: 0.09 nM; `CC(C)n1cnc2cc(-c3cnc4c(c3)N([C@H]3C[C@@](C)(N5CCCCC5)C3)C(=O)C4(C)C)nc(Nc3cc(C(=O)NC4(C(F)F)CC4)cc(F)c3F)c21` [Example 242, N-(1-(difluoromethyl)cyclopropyl)-3-((6-(3,3-dimethyl-1-((1s,3s)-3-methyl-3-(piperidin-1-yl)cyclobutyl)-2-oxo-2,3-dihydro-1H-pyrrolo[3,2-b]pyridin-6-yl)-3-isopropyl-3H-imidazo[4,5-c]pyridin-4-yl)amino)-4,5-difluorobenzamide]: 0.07 nM; `CNC(=O)c1cc(Nc2nc(-c3ccc4c(c3)N([C@H]3C[C@@H](N5CCCCC5)C3)C(=O)C4(C)C)cc3ncn(C(C)C)c23)ccc1OC(F)(F)F` [Example 140]: 0.3 nM.
Regarding `CNC(=O)c1cc(Nc2nc(-c3ccc4c(c3)N([C@H]3C[C@@H](N5CCCCC5)C3)C(=O)C43CCOCC3)cc3ncn(C(C)C)c23)ccc1C` [Example 123], the half-inhibitory concentration (IC50) is 0.1 nM.
Still for that read-out and setting: as for `CNC(=O)c1cc(Nc2nc(-c3ccc4c(c3)N([C@H]3C[C@@H](N5CC(C)(C)C5)C3)C(=O)C4(C)C)cc3ncn(C(C)C)c23)ccc1C` [Example 122], the figure is 0.1 nM; as for `CNC(=O)c1cc(Nc2nc(-c3ccc4c(c3)N([C@H]3C[C@@H](N5C6CCC5COC6)C3)C(=O)C4(C)C)cc3ncn(C(C)C)c23)c(F)cc1C` [Example 8], 0.08 nM.
